Earlier results on one compound are cited in PMC11258229 (Scientific Reports, 2024).

The conditions of data set [1]: high permeability and low solubility.

Take `CC[C@@H]([C@H](C)O)n1ncn(-c2ccc(N3CCN(c4ccc(OC[C@@H]5CO[C@@](Cn6cncn6)(c6ccc(F)cc6F)C5)cc4)CC3)cc2)c1=O` [Posaconazole]: the “half-life (T1/2)” value was “twenty to sixty six”; the “mean T1/2” value was “thirty five”; the “renal clearance, share of the total conjugate oral dosage” value is on record as “around 13%”. The “biopharmaceutical classification system category” value in data set [1] is “class II”.
